Source: PMC9861386, “N-Heterocyclic Carbene-Iridium Complexes as Photosensitizers for In Vitro Photodynamic Therapy to Trigger Non-Apoptotic Cell Death in Cancer Cells” (Molecules, 2023)
Like-named read-outs stand apart in the source and are kept apart here.

Experiments:
PC-3 = assay: MTT cytotoxicity, 48 h; format: cell-based, human; conditions: for GI50: MTT; for SI (PC-3): NIH3T3 vs PC-3
Protocol: (§1) The in vitro cytotoxicity of iridium(III) complexes 4a–4g was first evaluated against cancer cell lines PC-3 (human prostate) and T24 (human bladder) and the non-cancerous NIH-3T3 cell line (murine fibroblasts) using colorimetric MTT tests after 48 h of treatment. The dimeric iridium precursor [IrCl(ppy)2]2 was used as reference and the results are summarized in Table S1 (Supplementary Materials) in the supporting information file. […] The complexes were also evaluated for their cytotoxicity towards healthy NIH-3T3 cells, giving access to the selectivity index (SI). […] No linear correlation between lipophilicity and anti-cancer activity was found for the iridium(III) complexes 4a–4g. For the following biological studies, we focused on the C1 series.
(§2) Table S1. Cytotoxic activity of iridium(III) NHC complexes 4a−4g expressed as GI50 (μM) values towards selected cancer and normal cell lines as determined by MTT assay (48 h).a Complex PC-3 T24 NIH3T3 SI (PC-3) SI (T24) […]
(§3) a GI50 values correspond to the concentration of complexes causing 50 % inhibition of cell growth.
(§4) Data were obtained from three independent experiments.
(§5) The cytotoxic effects of the NHC precursors, the imidazolium salts, which represents the potential hydrolysis and/or degradation products of the complexes, have been published before [SI-1, SI-2]. […]

T24 = assay: MTT cytotoxicity, 48 h; format: cell-based, human; conditions: for GI50: MTT; for SI (T24): NIH3T3 vs T24
Protocol: as §1, §2, §3, §4, §5

[1] = Octanol–water partition coefficient, shake-flask method; format: physicochemical; conditions: n-octanol/water, UV absorbance 260 nm
Protocol: Lipophilicities of all complexes have been measured by the classical shake-flask method, using UV absorption. The Log p values range from -0.063 to 0.861 in increasing order –0.063 (4a), 0.035 (4d), 0.519 (4f), 0.581 (4c), 0.842 (4b), 0.847 (4e) and 0.861 (4g).
The octanol–water partition coefficients (P) of 4a to 4g were determined using a shake-flask method. Water (100 mL, distilled after milli-Q purification) and n-octanol (100 mL, Sigma-Aldrich, St. Louis, MO, USA, ACS spectrophotometric grade, ≥99%) were shaken together for 24 h to allow saturation of both phases. Stock solutions of the […] compounds (50 μM) were prepared in the aqueous phase and aliquots (1 mL) of each of these stock solutions were then added to an equal volume of the n-octanol phase. The resultant biphasic solutions were mixed for 1 h and then centrifuged (3000× g, 5 min) (Eppendorf Centrifuges 5415R and 5804R) to separate the phases. The concentrations of the complexes in the organic and aqueous phases were then determined using UV absorbance spectroscopy (260 nm). Log P was defined as the logarithm of the ratio of the concentrations of the studied complex in the organic and aqueous phases (Log P = Log {[Ir(org)]/[Ir(aq)]}; values reported are the means of at least two separate determinations).

HeLa cervix cancer cells = assay: MTT cell viability, 72 h, dark or 458 nm irradiation; format: cell-based, human; conditions: for GI50: 72 h, MTT; for PI HeLa: GI50 non-irradiated / GI50 irradiated; for SI vs MC3T3, HeLa Blue / SI vs NIH, HeLa Blue: blue light; for SI vs MC3T3, HeLa Blue / SI vs MC3T3, HeLa Dark: GI50 MC3T3 / GI50 HeLa; for SI vs NIH, HeLa Blue / SI vs NIH, HeLa Dark: GI50 NIH-3T3 / GI50 HeLa
Protocol: (§6) For all biology experiments, the compounds were solubilized in DMSO to reach a final fixed concentration equal to 0.1% v/v to avoid cytotoxicity caused by DMSO [89]. The results are normalized to controls (0.1% v/v DMSO). Depending on the cell type, approximatively 1000 to 10,000 cells/cm^2 were seeded in 48-well plates for MTT, ATP and GSH assays and 60 mm Petri dishes for Western blots. Cells were allowed to attach overnight and then incubated for 4 h with the different complexes (in the dark), then irradiated for 10 min, followed by an incubation in the dark up to 72 h.
(§7) Irradiation was conducted using an in-house device: a series of blue light LEDs selected according to the absorption spectra of the compounds at a 458 nm wavelength with an emitted power of 9.6 watts. The absorbed energy, or irradiance, was measured at 458 nm with a Thorlabs Optical Power Meter PM100A at 5 and 10 cm distance between the cell layer and the light source and expressed as mW/cm^2.
(§8) A tetrazolium-based MTT reagent (3-(4,5-dimethylthiazol-2-yl)-2,5-diphenyltetrazolium bromide) was used to determine cell viability, as previously described. After 72 h of treatment at 37 °C and 5% CO2, cells were incubated with 25 μL MTT solution (5 mg/mL; Sigma-Aldrich) for 4 h. After solubilization with 500 μL of lysis buffer (DMSO), formazan was quantified by spectrophotometry with a microplate reader at 570 nm absorbance (ClarioSTAR, BMG LabTech, Champigny-sur-Marne, France). GI50 values corresponding to the concentration that caused 50% inhibition of cell proliferation were calculated from dose–response curves obtained by nonlinear regression analysis. All results were calculated from data obtained in at least three independent experiments.

A549 lung cancer cells = assay: as above; format: cell-based, human; conditions: for GI50: 72 h, MTT; for PI A549: GI50 non-irradiated / GI50 irradiated; for SI vs MC3T3, A549 Blue / SI vs NIH, A549 Blue: blue light; for SI vs MC3T3, A549 Blue / SI vs MC3T3, A549 Dark: GI50 MC3T3 / GI50 A549; for SI vs NIH, A549 Blue / SI vs NIH, A549 Dark: GI50 NIH-3T3 / GI50 A549
Protocol: as §6, §7, §8

[2] = test system: MCF7/FasR breast cancer cells; assay: as above; format: cell-based, human; conditions: for GI50: 72 h, MTT; for PI MCF7: GI50 non-irradiated / GI50 irradiated; for SI vs MC3T3, MCF7 Blue / SI vs NIH, MCF7 Blue: blue light; for SI vs MC3T3, MCF7 Blue / SI vs MC3T3, MCF7 Dark: GI50 MC3T3 / GI50 MCF7; for SI vs NIH, MCF7 Blue / SI vs NIH, MCF7 Dark: GI50 NIH-3T3 / GI50 MCF7
Protocol: as §6, §7, §8

T24 bladder cancer cells = assay: as above; format: cell-based, human; conditions: for GI50: 72 h, MTT; for PI T24: GI50 non-irradiated / GI50 irradiated; for SI vs MC3T3, T24 Blue / SI vs NIH, T24 Blue: blue light; for SI vs MC3T3, T24 Blue / SI vs MC3T3, T24 Dark: GI50 MC3T3 / GI50 T24; for SI vs NIH, T24 Blue / SI vs NIH, T24 Dark: GI50 NIH-3T3 / GI50 T24
Protocol: as §6, §7, §8

[3] = test system: PC-3 prostate cancer cells; assay: as above; format: cell-based, human; conditions: for GI50: 72 h, MTT; for PI PC-3: GI50 non-irradiated / GI50 irradiated; for SI vs MC3T3, PC-3 Blue / SI vs NIH, PC-3 Blue: blue light; for SI vs MC3T3, PC-3 Blue / SI vs MC3T3, PC-3 Dark: GI50 MC3T3 / GI50 PC-3; for SI vs NIH, PC-3 Blue / SI vs NIH, PC-3 Dark: GI50 NIH-3T3 / GI50 PC-3
Protocol: as §6, §7, §8

[4] = test system: panel of five cancer cell lines (T24, PC-3, MCF7, A549, HeLa); assay: MTT cell viability, 72 h, pooled over the cancer cell panel; format: cell-based, human
Protocol: as §6, §7, §8

[5] = 458 nm irradiation 10 min, read-out: GI50 HeLa Blue
[6] = 458 nm irradiation 10 min, read-out: GI50 A549 Blue
[7] = 458 nm irradiation 10 min, read-out: GI50 MCF7 Blue
[8] = 458 nm irradiation 10 min, read-out: GI50 T24 Blue
[9] = 458 nm irradiation 10 min, read-out: GI50 PC-3 Blue

CC(C)[n+]1ccn2[c]1[Ir-3]13([c]4ccccc4-c4cccc[n+]41)([c]1ccccc1-c1cccc[n+]13)[c]1n(cc[n+]1C(C)C)C2.F[P-](F)(F)(F)(F)F [Complex 4a]
GI50 (PC-3): 480 nM
SI (PC-3) (PC-3): 6.9
GI50 (T24): 310 nM
SI (T24) (T24): 10.6
Log P [1]: –0.063
GI50 (HeLa cervix cancer cells; [5]): 525 nM
PI HeLa (HeLa cervix cancer cells): 2.5
SI vs MC3T3, HeLa Blue (HeLa cervix cancer cells): 3.3
SI vs NIH, HeLa Blue (HeLa cervix cancer cells): 5.3
GI50 (HeLa cervix cancer cells; dark, read-out: GI50 HeLa Dark): 1290 nM
SI vs MC3T3, HeLa Dark (HeLa cervix cancer cells; dark): 1.9
SI vs NIH, HeLa Dark (HeLa cervix cancer cells; dark): 2.8
GI50 (A549 lung cancer cells; [6]): 107 nM
PI A549 (A549 lung cancer cells): 3.3
SI vs MC3T3, A549 Blue (A549 lung cancer cells): 16.3
SI vs NIH, A549 Blue (A549 lung cancer cells): 26.1
GI50 (A549 lung cancer cells; dark, read-out: GI50 A549 Dark): 355 nM
SI vs MC3T3, A549 Dark (A549 lung cancer cells; dark): 6.9
SI vs NIH, A549 Dark (A549 lung cancer cells; dark): 10.3
GI50 [2, 7]: 50 nM
PI MCF7 [2]: 4.3
SI vs MC3T3, MCF7 Blue [2]: 34.8
SI vs NIH, MCF7 Blue [2]: 55.8
GI50 ([2]; dark, read-out: GI50 MCF7 Dark): 213 nM
SI vs MC3T3, MCF7 Dark ([2]; dark): 11.5
SI vs NIH, MCF7 Dark ([2]; dark): 17.2
GI50 (T24 bladder cancer cells; [8]): 82 nM
PI T24 (T24 bladder cancer cells): 3.5
SI vs MC3T3, T24 Blue (T24 bladder cancer cells): 21.2
SI vs NIH, T24 Blue (T24 bladder cancer cells): 34.0
GI50 (T24 bladder cancer cells; dark, read-out: GI50 T24 Dark): 288 nM
SI vs MC3T3, T24 Dark (T24 bladder cancer cells; dark): 8.5
SI vs NIH, T24 Dark (T24 bladder cancer cells; dark): 12.7
GI50 [3, 9]: 57 nM
PI PC-3 [3]: 4.1
SI vs MC3T3, PC-3 Blue [3]: 30.5
SI vs NIH, PC-3 Blue [3]: 48.9
GI50 ([3]; dark, read-out: GI50 PC-3 Dark): 233 nM
SI vs MC3T3, PC-3 Dark ([3]; dark): 10.6
SI vs NIH, PC-3 Dark ([3]; dark): 15.8

F[P-](F)(F)(F)(F)F.c1ccc(C[n+]2ccn3[c]2[Ir-3]24([c]5ccccc5-c5cccc[n+]52)([c]2ccccc2-c2cccc[n+]24)[c]2n(cc[n+]2Cc2ccccc2)C3)cc1 [Complex 4c]
GI50 (PC-3): 410 nM
SI (PC-3) (PC-3): 17.3
GI50 (T24): 430 nM
SI (T24) (T24): 16.5
Log P [1]: 0.581
GI50 (HeLa cervix cancer cells; [5]): 275 nM
PI HeLa (HeLa cervix cancer cells): 1.8
SI vs MC3T3, HeLa Blue (HeLa cervix cancer cells): 4.8
SI vs NIH, HeLa Blue (HeLa cervix cancer cells): 9.7
GI50 (HeLa cervix cancer cells; dark, read-out: GI50 HeLa Dark): 494 nM
SI vs MC3T3, HeLa Dark (HeLa cervix cancer cells; dark): 2.3
SI vs NIH, HeLa Dark (HeLa cervix cancer cells; dark): 5.5
GI50 (A549 lung cancer cells; [6]): 171 nM
PI A549 (A549 lung cancer cells): 2.4
SI vs MC3T3, A549 Blue (A549 lung cancer cells): 7.8
SI vs NIH, A549 Blue (A549 lung cancer cells): 15.6
GI50 (A549 lung cancer cells; dark, read-out: GI50 A549 Dark): 407 nM
SI vs MC3T3, A549 Dark (A549 lung cancer cells; dark): 2.9
SI vs NIH, A549 Dark (A549 lung cancer cells; dark): 6.7
GI50 [2, 7]: 61 nM
PI MCF7 [2]: 4.1
SI vs MC3T3, MCF7 Blue [2]: 21.8
SI vs NIH, MCF7 Blue [2]: 43.8
GI50 ([2]; dark, read-out: GI50 MCF7 Dark): 248 nM
SI vs MC3T3, MCF7 Dark ([2]; dark): 4.7
SI vs NIH, MCF7 Dark ([2]; dark): 11.0
GI50 (T24 bladder cancer cells; [8]): 91 nM
PI T24 (T24 bladder cancer cells): 3.9
SI vs MC3T3, T24 Blue (T24 bladder cancer cells): 14.6
SI vs NIH, T24 Blue (T24 bladder cancer cells): 29.3
GI50 (T24 bladder cancer cells; dark, read-out: GI50 T24 Dark): 358 nM
SI vs MC3T3, T24 Dark (T24 bladder cancer cells; dark): 3.2
SI vs NIH, T24 Dark (T24 bladder cancer cells; dark): 7.6
GI50 [3, 9]: 116 nM
PI PC-3 [3]: 2.9
SI vs MC3T3, PC-3 Blue [3]: 11.5
SI vs NIH, PC-3 Blue [3]: 23.0
GI50 ([3]; dark, read-out: GI50 PC-3 Dark): 336 nM
SI vs MC3T3, PC-3 Dark ([3]; dark): 3.5
SI vs NIH, PC-3 Dark ([3]; dark): 8.1
Average SI vs MC3T3, Blue light ([4]; GI50 MC3T3 / GI50 of all irradiated cancer cell lines): 12.1
Average SI vs NIH, Blue light ([4]; GI50 NIH-3T3 / GI50 of all irradiated cancer cell lines): 24.3
